Experimental findings from publication PMC2649430 (Neuropharmacology, 2008) are described below.

Assay [1] concerns the target T1, E215Q mutant 5-HT3 receptor (Mus musculus, UniProt P23979, E215Q).
T1 sequence (P23979 24-489 E215Q): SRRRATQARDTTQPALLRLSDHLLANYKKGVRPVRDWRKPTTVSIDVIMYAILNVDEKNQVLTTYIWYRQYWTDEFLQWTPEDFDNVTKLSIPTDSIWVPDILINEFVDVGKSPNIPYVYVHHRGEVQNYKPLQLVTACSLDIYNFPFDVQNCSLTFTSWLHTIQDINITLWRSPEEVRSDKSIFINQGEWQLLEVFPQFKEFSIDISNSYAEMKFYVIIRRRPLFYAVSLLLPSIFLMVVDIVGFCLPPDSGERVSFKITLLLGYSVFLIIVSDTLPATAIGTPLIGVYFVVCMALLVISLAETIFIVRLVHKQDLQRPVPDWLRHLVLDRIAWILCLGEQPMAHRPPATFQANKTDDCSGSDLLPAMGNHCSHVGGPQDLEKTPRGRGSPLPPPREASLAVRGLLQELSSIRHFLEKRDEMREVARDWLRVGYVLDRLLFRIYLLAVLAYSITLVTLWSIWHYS
As to conditions: no added MgCl2.

The target of assay [2] is T2, V219L mutant 5-HT3 receptor (Mus musculus, UniProt P23979, V219L).
T2 sequence (P23979 24-489 V219L): T1 sequence (P23979 24-489 E215Q) with Q192E, V196L
Kind of assay: Whole-cell patch-clamp, V219L mutant in HEK 293 cells. It counts as cell-based. Particulars: 1 mM 5-HT, n > 50. A general note: The patch-clamp technique gives a direct electrical read-out from membranes.

Assay [3] deals with T3, E213Q mutant 5-HT3 receptor (Mus musculus, UniProt P23979, E213Q).
T3 sequence (P23979 24-489 E213Q): T1 sequence (P23979 24-489 E215Q) with E190Q, Q192E
Kind of assay: Whole-cell patch-clamp, 5-HT dose-response, E213Q mutant in HEK 293 cells. It counts as cell-based. As to conditions: for Hill slope: E213Q, no added MgCl2.

Assay [4] concerns the target T4, E277A/S297R mutant 5-HT3 receptor (Mus musculus, UniProt P23979, E277A/S297R).
T4 sequence (P23979 24-489 E277A/S297R): T1 sequence (P23979 24-489 E215Q) with Q192E, E254A, S274R
It counts as cell-based. As to conditions: no added MgCl2.

The target in assay [5] is T5, D204N mutant 5-HT3 receptor (Mus musculus, UniProt P23979, D204N).
T5 sequence (P23979 24-489 D204N): T1 sequence (P23979 24-489 E215Q) with D181N, Q192E
Kind of assay: Whole-cell patch-clamp, D204N mutant in HEK 293 cells. It counts as cell-based. Particulars: 1 mM 5-HT, n > 50.

Assay [6] concerns the target T6, wild type 5-HT3 receptors (Mus musculus, UniProt P23979).
T6 sequence (P23979 24-489): T1 sequence (P23979 24-489 E215Q) with Q192E

For assay [7], the target named is T7, E218Q mutant 5-HT3 receptor (Mus musculus, UniProt P23979, E218Q).
T7 sequence (P23979 24-489 E218Q): T1 sequence (P23979 24-489 E215Q) with Q192E, E195Q
It is filed as cell-based. As to conditions: 1 mM 5-HT, n > 50.

Numbering of substitutions follows the chain as printed. Where two headings read alike, the source gives them in different places.

As a reminder, the Hill slope is the slope factor of the fitted curve. With `NCCc1c[nH]c2ccc(O)cc12` [5-HT, 5-hydroxytryptamine], the Hill slope is 2.98 ± 0.11 in assay [1] (Ext. Ca2+ 0 mM); 3.09 ± 0.39 in assay [1] (Ext. Ca2+ 1 mM); 2.54 ± 0.19 in assay [1] (Ext. Ca2+ 3 mM); 1.90 ± 0.24 in assay [1] (Ext. Ca2+ 10 mM); 2.45 ± 0.22 in assay [3] (Ext. Ca2+ 0 mM); 2.39 ± 0.16 in assay [3] (Ext. Ca2+ 1 mM). The Hill slope was 2.42 ± 0.16 in assay [3] (Ext. Ca2+ 3 mM); 1.62 ± 0.19 in assay [3] (Ext. Ca2+ 10 mM); 2.04 ± 0.16 in assay [4] (Ext. Ca2+ 0 mM); 1.64 ± 0.25 in assay [4] (Ext. Ca2+ 1 mM); 1.62 ± 0.30 in assay [4] (Ext. Ca2+ 3 mM); 1.35 ± 0.18 in assay [4] (Ext. Ca2+ 10 mM). The Hill slope came out at 2.39 ± 0.18 in assay [6] (Ext. Ca2+ 0 mM, no added MgCl2); 2.24 ± 0.19 in assay [6] (Ext. Ca2+ 1 mM, no added MgCl2); 2.08 ± 0.19 in assay [6] (Ext. Ca2+ 3 mM, no added MgCl2); 2.08 ± 0.26 in assay [6] (Ext. Ca2+ 10 mM, no added MgCl2); 2.31 ± 0.25 in assay [6] (physiological conditions (1.0 mM CaCl2, 1.0 mM MgCl2), n = 23). In addition, the “current response to 5-HT” value in assay [2], in assay [5] and in assay [7] was “unable to elicit a response” throughout. The “rates of desensitisation, faster than wild type responses” value in assay [3] (E213Q versus wild type) was approximately 4 fold. In addition, the I/I max in assay [4] (Ext. Ca2+ 3 mM) came to 0.99 ± 0.03; in assay [4] (Ext. Ca2+ 10 mM), 0.96 ± 0.02.
